Measurements from patent US11214594B2, “Antimicrobial peptide having synergistic antibacterial effect with antibiotics on multidrug resistant bacteria, and use thereof” (priority 2016, dated 2022).
Like-named read-outs stand apart in the source and are kept apart here. Where a SMILES comes first, the peptide text is derived from it. [ ]: non-standard residue; d: D form.

How the values were obtained:
A. baumannii [1] = assay: MIC of antimicrobial peptide during combined treatment with antibiotic; type: cell-based, Acinetobacter baumannii
How it was run: (§1)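 Broth microdilution in MH medium; strains were diluted to 2×10^6 CFU per ml before plating. Peptide was serially diluted stepwise at 2:1 starting from its MIC, and MH-diluted antibiotic was then added to determine MIC. The reversed arrangement was also tested.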

MDRAB 12035 [2] = assay: as above; type: cell-based, Acinetobacter baumannii
How it was run: as §1

MDREC 1229 [3] = assay: MIC of antibiotic during combined treatment with antimicrobial peptide; type: cell-based, Escherichia coli
How it was run: as §1

P. aeruginosa = assay: microbe, parasite or virus in culture; type: cell-based, Pseudomonas aeruginosa
How it was run: (§2)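 Peptides were serially diluted twofold in Mueller-Hinton medium and combined 1:1 with bacterial suspensions prepared at 2×10^6 CFU. Readout was the minimal inhibitory concentration, i.e. the lowest concentration with no growth.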

MDREC 1238 = type: cell-based, Escherichia coli
How it was run: as §2

B. subtilis = assay: microbe, parasite or virus in culture; type: cell-based, Bacillus subtilis
How it was run: as §2

E. coli = type: cell-based, Escherichia coli; conditions: E. coli
How it was run: as §1

MDREC 1229 [4] = type: cell-based, Escherichia coli
How it was run: as §1

A. baumannii [5] = assay: microbe, parasite or virus in culture; type: cell-based, Acinetobacter baumannii
How it was run: as §2

MDRAB 12035 [6] = assay: microbe, parasite or virus in culture; type: cell-based, Acinetobacter baumannii
How it was run: as §2

S. typhimurium = assay: microbe, parasite or virus in culture; type: cell-based, Salmonella typhimurium
How it was run: as §2

S. aureus = assay: microbe, parasite or virus in culture; type: cell-based, Staphylococcus aureus
How it was run: as §2

MDRAB 12035 [7] = assay: MIC of antibiotic during combined treatment with antimicrobial peptide; type: cell-based, Acinetobacter baumannii
How it was run: as §1

MDRST 8007 = assay: Minimal inhibitory concentration (MIC), single agent; type: cell-based, Salmonella typhimurium; conditions: agent alone
How it was run: as §2

S. epidermidis = assay: microbe, parasite or virus in culture; type: cell-based, Staphylococcus epidermidis
How it was run: as §2

MRSA 3114 = type: cell-based, Staphylococcus aureus; conditions: 3114
How it was run: as §2

MRSA 3126 = type: cell-based, Staphylococcus aureus; conditions: 3126
How it was run: as §2

MDRPA 2003 = type: cell-based, Pseudomonas aeruginosa
How it was run: as §2

MDRPA 2002 = type: cell-based, Pseudomonas aeruginosa
How it was run: as §2

MDRAB 12036 = type: cell-based, Acinetobacter baumannii
How it was run: as §2

[8] = erythromycin 4 μg/ml (Conc./MIC 1/8)
[9] = erythromycin 8 μg/ml (Conc./MIC 1/4)
[10] = erythromycin 16 μg/ml (Conc./MIC 1/2)
[11] = erythromycin 32 μg/ml (Conc./MIC 1)
[12] = vancomycin 512 μg/ml (Conc./MIC 1/2)
[13] = vancomycin 1024 μg/ml (Conc./MIC 1)
[14] = linezolid 64 μg/ml (Conc./MIC 1/8)
[15] = linezolid 512 μg/ml (Conc./MIC 1)
[16] = peptide treatment concentration 1 μg/ml
[17] = peptide treatment concentration 2 μg/ml
[18] = peptide treatment concentration 4 μg/ml
[19] = peptide treatment concentration 6 μg/ml
[20] = peptide treatment concentration 8 μg/ml
[21] = peptide treatment concentration 16 μg/ml
[22] = peptide treatment concentration 32 μg/ml
[23] = peptide treatment concentration 64 μg/ml

CC[C@H](C)[C@H](NC(=O)[C@H](CCCCN)NC(=O)[C@H](Cc1c[nH]c2ccccc12)NC(=O)[C@@H](N)CCCNC(=N)N)C(=O)N[C@@H](Cc1ccccc1)C(=O)N[C@@H](CCCCN)C(=O)N[C@@H](CCCCN)C(=O)N[C@H](C(=O)N[C@H](CCCCN)C(=O)N[C@@H](CCCCN)C(=O)N[C@@H](CC(C)C)C(=O)N[C@@H](CC(C)C)C(=O)N[C@@H](Cc1c[nH]cn1)C(=O)N[C@@H](CO)C(=O)N[C@@H](C)C(=O)N[C@@H](CCCCN)C(=O)N[C@@H](CCCCN)C(=O)N[C@@H](Cc1c[nH]c2ccccc12)C(N)=O)[C@@H](C)CC [PapMA-16, RWK IFK KIk KLL HSA KKW-NH2] (H-RWKIFKKI[dK]KLLHSAKKW-NH2; N-terminus assumed)
1 mg/L: Peptide MIC during treatment with linezolid (MDRAB 12035 [2]; linezolid […] (Conc./MIC 1/2)) | Peptide MIC during treatment with vancomycin (MDRAB 12035 [2]; [13]) | Antibiotic MIC, Erythromycin (MDREC 1229 [3]; [21]) | Peptide MIC during treatment with antibiotic (MDREC 1229 [4]; linezolid […] (Conc./MIC 1/2)) | Peptide MIC during treatment with antibiotic (MDREC 1229 [4]; [13]) | Erythromycin MIC during combined treatment with peptide (MDRAB 12035 [7]; [20])
0.5 mg/L: Peptide MIC during treatment with antibiotic (A. baumannii [1]; vancomycin […] (Conc./MIC 1/4)) | Antibiotic MIC, Erythromycin (MDREC 1229 [3]; [22])
64 mg/L: Antibiotic MIC, Erythromycin (MDREC 1229 [3]; [17]) | Antibiotic MIC, Linezolid (MDREC 1229 [3]; [18]) | Minimal inhibitory concentration MIC (P. aeruginosa) | Minimal inhibitory concentration MIC (MDREC 1238) | Minimal inhibitory concentration MIC (S. typhimurium) | Vancomycin MIC during combined treatment with peptide (MDRAB 12035 [7]; [18]) | Minimal inhibitory concentration MIC (MDRST 8007) | Minimal inhibitory concentration MIC (MDRPA 2003) | Minimal inhibitory concentration MIC (MDRPA 2002)
128 mg/L: Antibiotic MIC, Vancomycin (MDREC 1229 [3]; [18]) | Linezolid MIC during combined treatment with peptide (MDRAB 12035 [7]; [18])
2 mg/L: Peptide MIC during treatment with antibiotic (A. baumannii [1]; [10]) | Peptide MIC during treatment with antibiotic (A. baumannii [1]; vancomycin […] (Conc./MIC 1/8)) | Peptide MIC during treatment with vancomycin (MDRAB 12035 [2]; [12]) | Antibiotic MIC, Erythromycin (MDREC 1229 [3]; [20]) | Peptide MIC during treatment with antibiotic (MDREC 1229 [4]; erythromycin 64 μg/ml (Conc./MIC 1/4)) | Peptide MIC during treatment with antibiotic (MDREC 1229 [4]; erythromycin […] (Conc./MIC 1/2)) | Peptide MIC during treatment with antibiotic (MDREC 1229 [4]; linezolid […] (Conc./MIC 1/4)) | Peptide MIC during treatment with antibiotic (MDREC 1229 [4]; [12])
0.25 mg/L: Peptide MIC during treatment with antibiotic (A. baumannii [1]; [12]) | Erythromycin MIC during combined treatment with peptide (MDRAB 12035 [7]; [21])
>128 mg/L: Antibiotic MIC, Erythromycin (MDREC 1229 [3]; [16]) | Antibiotic MIC, Linezolid (MDREC 1229 [3]; [16]) | Antibiotic MIC, Vancomycin (MDREC 1229 [3]; [16]) | Antibiotic MIC, Linezolid (MDREC 1229 [3]; [17]) | Antibiotic MIC, Vancomycin (MDREC 1229 [3]; [17]) | Minimal inhibitory concentration MIC (B. subtilis) | Minimal inhibitory concentration MIC (S. aureus) | Linezolid MIC during combined treatment with peptide (MDRAB 12035 [7]; [16]) | Vancomycin MIC during combined treatment with peptide (MDRAB 12035 [7]; [16]) | Linezolid MIC during combined treatment with peptide (MDRAB 12035 [7]; [17]) | Vancomycin MIC during combined treatment with peptide (MDRAB 12035 [7]; [17]) | Minimal inhibitory concentration MIC (S. epidermidis) | Minimal inhibitory concentration MIC (MRSA 3114) | Minimal inhibitory concentration MIC (MRSA 3126)
8 mg/L: Peptide MIC during treatment with antibiotic (A. baumannii [1]; linezolid 32 μg/ml (Conc./MIC 1/8)) | Peptide MIC during treatment with antibiotic (A. baumannii [1]; linezolid 64 μg/ml (Conc./MIC 1/4)) | Peptide MIC during treatment with vancomycin (MDRAB 12035 [2]; vancomycin […] (Conc./MIC 1/8)) | Antibiotic MIC, Linezolid (MDREC 1229 [3]; [21]) | Antibiotic MIC, Vancomycin (MDREC 1229 [3]; [21]) | Peptide MIC during treatment with antibiotic (MDREC 1229 [4]; vancomycin […] (Conc./MIC 1/8)) | Linezolid MIC during combined treatment with peptide (MDRAB 12035 [7]; [21]) | Vancomycin MIC during combined treatment with peptide (MDRAB 12035 [7]; [21])
0 mg/L: Peptide MIC during treatment with antibiotic (A. baumannii [1]; [11]) | Peptide MIC during treatment with antibiotic (A. baumannii [1]; linezolid […] (Conc./MIC 1)) | Peptide MIC during treatment with antibiotic (A. baumannii [1]; [13]) | Peptide MIC during treatment with erythromycin (MDRAB 12035 [2]; [11]) | Peptide MIC during treatment with linezolid (MDRAB 12035 [2]; [15]) | Antibiotic MIC, Erythromycin (MDREC 1229 [3]; [23]) | Antibiotic MIC, Linezolid (MDREC 1229 [3]; [23]) | Antibiotic MIC, Vancomycin (MDREC 1229 [3]; [23]) | Peptide MIC (E. coli; with Erythromycin […] (Conc./MIC 1)) | Peptide MIC (E. coli; with Linezolid […] (Conc./MIC 1)) | Peptide MIC (E. coli; with Vancomycin 1024 μg/ml (Conc./MIC 1)) | Peptide MIC during treatment with antibiotic (MDREC 1229 [4]; erythromycin […] (Conc./MIC 1)) | Peptide MIC during treatment with antibiotic (MDREC 1229 [4]; [15]) | Erythromycin MIC during combined treatment with peptide (MDRAB 12035 [7]; [22]) | Linezolid MIC during combined treatment with peptide (MDRAB 12035 [7]; [22]) | Vancomycin MIC during combined treatment with peptide (MDRAB 12035 [7]; [22]) | Erythromycin MIC during combined treatment with peptide (MDRAB 12035 [7]; [23]) | Linezolid MIC during combined treatment with peptide (MDRAB 12035 [7]; [23]) | Vancomycin MIC during combined treatment with peptide (MDRAB 12035 [7]; [23])
32 mg/L: Antibiotic MIC, Erythromycin (MDREC 1229 [3]; [18]) | Antibiotic MIC, Linezolid (MDREC 1229 [3]; [19]) | Antibiotic MIC, Vancomycin (MDREC 1229 [3]; [19]) | Minimal inhibitory concentration MIC (A. baumannii [5]) | Peptide MIC, peptide alone (A. baumannii [5]) | Minimal inhibitory concentration MIC (MDRAB 12035 [6]) | Peptide MIC, peptide alone (MDRAB 12035 [6]) | Erythromycin MIC during combined treatment with peptide (MDRAB 12035 [7]; [16]) | Erythromycin MIC during combined treatment with peptide (MDRAB 12035 [7]; [17]) | Linezolid MIC during combined treatment with peptide (MDRAB 12035 [7]; [19]) | Vancomycin MIC during combined treatment with peptide (MDRAB 12035 [7]; [19]) | Minimal inhibitory concentration MIC (MDRAB 12036)
16 mg/L: Antibiotic MIC, Linezolid (MDREC 1229 [3]; [20]) | Antibiotic MIC, Vancomycin (MDREC 1229 [3]; [20]) | Erythromycin MIC during combined treatment with peptide (MDRAB 12035 [7]; [18]) | Linezolid MIC during combined treatment with peptide (MDRAB 12035 [7]; [20]) | Vancomycin MIC during combined treatment with peptide (MDRAB 12035 [7]; [20])
4 mg/L: Peptide MIC during treatment with antibiotic (A. baumannii [1]; [8]) | Peptide MIC during treatment with antibiotic (A. baumannii [1]; [9]) | Peptide MIC during treatment with antibiotic (A. baumannii [1]; linezolid […] (Conc./MIC 1/2)) | Peptide MIC during treatment with erythromycin (MDRAB 12035 [2]; [8]) | Peptide MIC during treatment with erythromycin (MDRAB 12035 [2]; [9]) | Peptide MIC during treatment with erythromycin (MDRAB 12035 [2]; [10]) | Peptide MIC during treatment with linezolid (MDRAB 12035 [2]; [14]) | Peptide MIC during treatment with linezolid (MDRAB 12035 [2]; linezolid […] (Conc./MIC 1/4)) | Peptide MIC during treatment with vancomycin (MDRAB 12035 [2]; vancomycin […] (Conc./MIC 1/4)) | Antibiotic MIC, Erythromycin (MDREC 1229 [3]; [19]) | Antibiotic MIC, Linezolid (MDREC 1229 [3]; [22]) | Antibiotic MIC, Vancomycin (MDREC 1229 [3]; [22]) | Peptide MIC during treatment with antibiotic (MDREC 1229 [4]; erythromycin 32 μg/ml (Conc./MIC 1/8)) | Peptide MIC during treatment with antibiotic (MDREC 1229 [4]; [14]) | Peptide MIC during treatment with antibiotic (MDREC 1229 [4]; vancomycin […] (Conc./MIC 1/4)) | Erythromycin MIC during combined treatment with peptide (MDRAB 12035 [7]; [19])
